Data reported in EP4696688A1, “BENZO-FUSED RING COMPOUND INHIBITOR, AND PREPARATION METHOD THEREFOR AND USE THEREOF” (Shanghai Hansoh Biomedical Co., Ltd., priority 2023, dated 2024).

Assays:
[1] = target: T1, human CYP11B2 (Homo sapiens, UniProt P19099); test: G-402 cell enzyme experiment, CYP11B2 (aldosterone product, HTRF); assay type: cell-based; conditions: G-402 cells stably expressing human CYP11B2, 1 µM 11-deoxycorticosterone, 16 h
T1 construct: The main elements of an expression plasmid include ORF of human CYP11B1 or human CYP11B2; expressed in transfected cells
T1 sequence (P19099 25-503): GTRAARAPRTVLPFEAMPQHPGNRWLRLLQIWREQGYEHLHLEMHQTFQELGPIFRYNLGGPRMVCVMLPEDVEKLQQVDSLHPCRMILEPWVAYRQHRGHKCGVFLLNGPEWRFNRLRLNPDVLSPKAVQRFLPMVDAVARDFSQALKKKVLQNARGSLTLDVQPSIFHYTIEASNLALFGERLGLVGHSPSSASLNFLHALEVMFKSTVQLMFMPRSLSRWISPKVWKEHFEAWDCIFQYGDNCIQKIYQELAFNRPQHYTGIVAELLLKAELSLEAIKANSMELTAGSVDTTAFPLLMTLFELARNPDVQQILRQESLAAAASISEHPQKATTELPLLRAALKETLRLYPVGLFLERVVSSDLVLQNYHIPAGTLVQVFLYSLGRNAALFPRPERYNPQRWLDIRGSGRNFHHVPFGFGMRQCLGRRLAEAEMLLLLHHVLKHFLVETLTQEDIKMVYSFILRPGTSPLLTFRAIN
Excerpt: (§1) G-402 cell line was used as host cells to express (by transient or stable transfection) an enzyme of the human CYP11 family. Specifically, G-402 cell lines stably expressing human CYP11B1 and human CYP11B2 were established respectively. […] Therefore, the G-402 cell line is very suitable as a host cell for the ectopic expression of an enzyme of the CYP11 family.
(§2) The G-402 cell line, originally derived from renal myoblastoma, can be obtained from ATCC (CRL-1440). The main elements of an expression plasmid include ORF of human CYP11B1 or human CYP11B2, a suitable promoter (CMV promoter), and a suitable resistance marker (neomycin). The expression plasmid was transfected into G-402 cells by standard technology, and a specific antibiotic was then given for screening. The activity of the enzyme expressed by the screened monoclonal cells was assessed by 11-deoxycorticosterone (substrate of CYP11B2) and 11-deoxycortisol (substrate of CYP11B1).
(§3) The G-402 cells expressing CYP11 plasmid, as established in the above solution, were cultured in McCoy's 5a Modified Medium (ATCC Catalog No. 30-2007) containing 10% FCS and 400 µg/ml G418 in an incubator at 37°C and 5% CO2. A cell enzyme experiment was carried out using DMEM/F12 medium containing 2.5% charcoal-treated FBS and an appropriate concentration of a substrate (1 µM 11-deoxycorticosterone or 1 µM 11-deoxycortisol). In order to detect the activity of the enzyme in the cells, the cells were plated in a 96-well plate and incubated for 16 h. The supernatant was then transferred and analyzed for the concentration of the expected product (the product of CYP11B2: aldosterone; the product of CYP11B1: cortisol). The concentrations of these products were determined by an HTRF experiment of CisBio.
(§4) In the cell enzyme experiment, the inhibitory effect of the test compound on the generated product can reflect the inhibitory effect thereof on the enzyme. The dose-dependent inhibition of the enzyme activity by the compound was calculated by plotting the concentration of the test compound (x axis) versus the measured product level (y axis). Then, the original data was fitted to a 4-parameter sigmoidal function (Morgan-Mercer-Flodin, MMF model) by least square method: y = (AB + Cx^D) / (B + x^D) in which A is the maximum y value, B is the EC50 determined by XLFit, C is the minimum y value, and D is the slope value. The maximum value A corresponds to the amount of the product detected without an inhibitor, and C corresponds to the amount of the product detected in the G402 cells expressing an empty plasmid.
(§5) The EC50 value of the compound of the present invention was determined by the above G-402 experiment system. The activity of the CYP11B2 enzyme was determined under the conditions of 1 µM 11-deoxycorticosterone and a variable amount of the inhibitor, and the activity of the CYP11B1 enzyme was determined under the conditions of 1 µM 11-deoxycortisol and a variable amount of the inhibitor.

[2] = target: T2, human CYP11B1 (Homo sapiens, UniProt P15538); test: G-402 cell enzyme experiment, CYP11B1 (cortisol product, HTRF), selectivity versus CYP11B2; assay type: cell-based; conditions: human selective factor: ratio of CYP11B1 EC50 to CYP11B2 EC50; G-402 cells
T2 construct: The main elements of an expression plasmid include ORF of human CYP11B1 or human CYP11B2; expressed in transfected cells
T2 sequence (P15538 25-503): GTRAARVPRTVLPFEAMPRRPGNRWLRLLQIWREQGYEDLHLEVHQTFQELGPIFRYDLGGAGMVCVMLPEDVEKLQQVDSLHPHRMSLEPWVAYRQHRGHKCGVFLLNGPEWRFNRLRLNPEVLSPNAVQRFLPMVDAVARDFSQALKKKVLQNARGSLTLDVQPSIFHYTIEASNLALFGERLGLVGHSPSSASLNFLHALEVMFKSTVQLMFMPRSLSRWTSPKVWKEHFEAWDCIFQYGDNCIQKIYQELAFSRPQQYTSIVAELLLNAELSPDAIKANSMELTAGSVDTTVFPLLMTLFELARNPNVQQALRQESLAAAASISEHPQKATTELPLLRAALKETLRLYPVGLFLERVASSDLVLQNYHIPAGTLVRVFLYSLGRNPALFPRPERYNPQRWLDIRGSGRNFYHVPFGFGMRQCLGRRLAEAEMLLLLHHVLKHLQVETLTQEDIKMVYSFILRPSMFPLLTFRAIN
Excerpt: as §1, §2, §3, §4, §5

SMILES | EC50 [1] [µM] | hsF [2] [x]
COc1ccc2cc(-c3cncc(N4CC5(CC(NC(=O)c6cnn(C)c6)C5)C4)c3)ccc2n1 [Example 63, N-(2-(5-(2-methoxyquinolin-6-yl)pyridin-3-yl)-2-azaspiro[3.3]heptan-6-yl)-1-methyl-1H-pyrazole-4-carboxamide] | 0.006 | 1912
COCC(=O)N1CC2(C1)CN(c1cncc(-c3ccc4nc(OC)ccc4c3)c1)C2 [Example 80, 2-methoxy-1-(6-(5-(2-methoxyquinolin-6-yl)pyridin-3-yl)-2,6-diazaspiro[3.3]heptan-2-yl)ethan-1-one] | 0.017 | –
COc1ccc2cc(-c3cncc(N4CCC(NC(=O)c5cnn(C)c5)CC4)c3)ccc2n1 [Example 71, N-(1-(5-(2-methoxyquinolin-6-yl)pyridin-3-yl)piperidin-4-yl)-1-methyl-1H-pyrazole-4-carboxamide] | 0.004 | –
COc1ccc2cc(-c3cncc(N4CC5(CN(C(=O)C6(C#N)CC6)C5)C4)c3)ccc2n1 [Example 81, 1-(6-(5-(2-methoxyquinolin-6-yl)pyridin-3-yl)-2,6-diazaspiro[3.3]heptane-2-carbonyl)cyclopropane-1-carbonitrile] | 0.005 | 261
COc1ccc2cc(-c3cncc(N4CCC(NC(=O)c5cnn(C)c5)CC4)n3)ccc2n1 [Example 109, N-(1-(6-(2-methoxyquinolin-6-yl)pyrazin-2-yl)piperidin-4-yl)-1-methyl-1H-pyrazole-4-carboxamide] | 0.006 | 159
CCC(=O)NC1CCCc2c(-c3cc(F)c4c(c3)CCc3nncn3-4)cncc21 (centres unmarked) [Example 37, N-(4-(9-fluoro-4,5-dihydro-[1,2,4]triazolo[4,3-a]quinolin-7-yl)-5,6,7,8-tetrahydroisoquinolin-8-yl)propanamide] | 0.035 | –
COc1ccc2cc(-c3cncc(N4CC5(CN(C(=O)c6ccc(C)nc6)C5)C4)c3)ccc2n1 [Example 84, (6-(5-(2-methoxyquinolin-6-yl)pyridin-3-yl)-2,6-diazaspiro[3.3]heptan-2-yl)(6-methylpyridin-3-yl)methanone] | 0.008 | 1652
COc1ccc2cc(-c3cncc(N4CC5(CCN(C(=O)c6cnn(C)c6)CC5)C4)c3)ccc2n1 [Example 62, (2-(5-(2-methoxyquinolin-6-yl)pyridin-3-yl)-2,7-diazaspiro[3.5]nonan-7-yl)(1-methyl-1H-pyrazol-4-yl)methanone] | 0.014 | 174
COc1ccc2cc(-c3cncc(N4CC5(CN(C(=O)C6(O)CC6)C5)C4)c3)ccc2n1 [Example 97, (1-hydroxycyclopropyl)(6-(5-(2-methoxyquinolin-6-yl)pyridin-3-yl)-2,6-diazaspiro[3.3]heptan-2-yl)methanone] | 0.011 | 971
CCC(=O)NC1CCCc2c(-c3ccc4nc(OC)ccc4c3)cncc21 (centres unmarked) [Example 14-A] | 0.024 | –
COc1ccc2cc(-c3cncc(NC4CN(C(=O)c5cnn(C6CC6)c5)C4)c3)ccc2n1 [Example 54, (1-cyclopropyl-1H-pyrazol-4-yl)(3-((5-(2-methoxyquinolin-6-yl)pyridin-3-yl)amino)azetidin-1-yl)methanone] | 0.021 | 404
CCC(=O)Nc1cccc2c(-c3ccc4nc(OC)ccc4c3)cncc12 [Example 68, N-(4-(2-methoxyquinolin-6-yl)isoquinolin-8-yl)propanamide] | 0.033 | –
Cn1cc(C(=O)N2CC3(C2)CN(c2cncc(-c4ccc5c(c4)sc(=O)n5C)n2)C3)cn1 [Example 107, 3-methyl-6-(6-(6-(1-methyl-1H-pyrazole-4-carbonyl)-2,6-diazaspiro[3.3]heptan-2-yl)pyrazin-2-yl)benzo[d]thiazol-2(3H)-one] | 0.104 | > 1923
COc1ccc2cc(-c3cncc(N4CCN(C(=O)c5cnn(C)c5)CC4)c3)ccc2n1 [Example 50, (4-(5-(2-methoxyquinolin-6-yl)pyridin-3-yl)piperazin-1-yl)(1-methyl-1H-pyrazol-4-yl)methanone] | 0.008 | –
COc1ccc2cc(-c3cncc(NC4CCN(C(=O)c5cnn(C)c5)CC4)c3)ccc2n1 [Example 56, (4-((5-(2-methoxyquinolin-6-yl)pyridin-3-yl)amino)piperidin-1-yl)(1-methyl-1H-pyrazol-4-yl)methanone] | 0.007 | 159
COc1ccc2cc(-c3cncc(N4CC5(CN(C(=O)c6cnn(C7CC7)c6)C5)C4)c3)ccc2n1 [Example 43, (1-cyclopropyl-1H-pyrazol-4-yl)(6-(5-(2-methoxyquinolin-6-yl)pyridin-3-yl)-2,6-diazaspiro[3.3]heptan-2-yl)methanone] | 0.05 | > 4023
CCS(=O)(=O)N1CC(Oc2cncc(-c3ccc4nc(OC)ccc4c3)c2)C1 [Example 22, 6-(5-((1-(ethylsulfonyl)azetidin-3-yl)oxy)pyridin-3-yl)-2-methoxyquinoline] | 0.005 | –
[2H]C([2H])([2H])N(C(=O)c1cnn(C)c1)C1CCN(c2cncc(-c3ccc4nc(OC)ccc4c3)c2)CC1 [Example 72, N-(1-(5-(2-methoxyquinolin-6-yl)pyridin-3-yl)piperidin-4-yl)-1-methyl-N-(methyl-d3)-1H-pyrazole-4-carboxamide] | 0.01 | –
COc1ccc2cc(-c3cncc4c3CCCC4NC(C)=O)ccc2n1 (centres unmarked) [Example 24-A] | 0.016 | –
COc1ccc2cc(-c3cncc(N4CC5(CCN(C(=O)c6cnn(C)c6)C5)C4)c3)ccc2n1 [Example 51, (2-(5-(2-methoxyquinolin-6-yl)pyridin-3-yl)-2,6-diazaspiro[3.4]octane-6-yl)(1-methyl-1H-pyrazol-4-yl)methanone] | 0.024 | 157
CCC(=O)N[C@@H]1CCCc2c(-c3ccc4c(c3)sc(=O)n4C)cncc21 [Example 65, (R)-N-(4-(3-methyl-2-oxo-2,3-dihydrobenzo[d]thiazol-6-yl)-5,6,7,8-tetrahydroisoquinolin-8-yl)propanamide] | 0.089 | –
CCC(=O)N1CC2(C1)CN(c1cncc(-c3ccc4nc(OC)ccc4c3)c1)C2 [Example 36, 1-(6-(5-(2-methoxyquinolin-6-yl)pyridin-3-yl)-2,6-diazaspiro[3.3]heptan-2-yl)propan-1-one] | 0.026 | 2766
CCS(=O)(=O)N1CC(Oc2cncc(-c3ccc4c(c3)sc(=O)n4C)c2)C1 [Example 90, 6-(5-((1-(ethylsulfonyl)azetidin-3-yl)oxy)pyridin-3-yl)-3-methylbenzo[d]thiazol-2(3H)-one] | 0.023 | –
